Laboratory results as given in ChEMBL document CHEMBL4665624, “Synthesis of 5-(4-(1H-phenanthro[9,10-d]imidazol-2-yl)benzylidene)thiazolidine-2,4-dione as promising DNA and serum albumin-binding agents and evaluation of antitumor activity” (Eur J Med Chem, 2019).

How the values were obtained:
UACC-62 = assay: Antitumor activity against human UACC-62 cells assessed as cell growth inhibition at 10 uM incubated for 48 hrs by sulforhodamine B assay; type: functional; settings: read-out: GI
HOP-92 = assay: Antitumor activity against human HOP92 cells assessed as cell growth inhibition at 10 uM incubated for 48 hrs by sulforhodamine B assay; type: functional; settings: read-out: GI
MOLT-4 = assay: Antitumor activity against human MOLT4 cells assessed as cell growth inhibition at 10 uM incubated for 48 hrs by sulforhodamine B assay; type: functional; settings: read-out: GI
SNB-19 = assay: Antitumor activity against human SNB-19 cells assessed as cell growth inhibition at 10 uM incubated for 48 hrs by sulforhodamine B assay; type: functional; settings: read-out: GI
M14 = assay: Antitumor activity against human M14 cells assessed as cell growth inhibition at 10 uM incubated for 48 hrs by sulforhodamine B assay; type: functional; settings: read-out: GI
NCI-H522 = assay: Antitumor activity against human NCI-H522 cells assessed as cell growth inhibition at 10 uM incubated for 48 hrs by sulforhodamine B assay; type: functional; settings: read-out: GI
SW-620 = assay: Antitumor activity against human SW620 cells assessed as cell growth inhibition at 10 uM incubated for 48 hrs by sulforhodamine B assay; settings: SW-620, 48 h, read-out: GI
HCT-116 = assay: Antitumor activity against human HCT116 cells assessed as cell growth inhibition at 10 uM incubated for 48 hrs by sulforhodamine B assay; type: functional; settings: read-out: GI
K562 = assay: Antitumor activity against human K562 cells assessed as cell growth inhibition at 10 uM incubated for 48 hrs by sulforhodamine B assay; type: functional; settings: read-out: GI
MDA-MB-468 = assay: Antitumor activity against human MDA-MB-468 cells assessed as cell growth inhibition at 10 uM incubated for 48 hrs by sulforhodamine B assay; type: functional; settings: read-out: GI
A498 = assay: Antitumor activity against human A498 cells assessed as cell growth inhibition at 10 uM incubated for 48 hrs by sulforhodamine B assay; type: functional; settings: read-out: GI
EKVX = assay: Antitumor activity against human EKVX cells assessed as cell growth inhibition at 10 uM incubated for 48 hrs by sulforhodamine B assay; type: functional; settings: read-out: GI
U-251 = assay: Antitumor activity against human U251 cells assessed as cell growth inhibition at 10 uM incubated for 48 hrs by sulforhodamine B assay; type: functional; settings: read-out: GI
SK-MEL-28 = assay: Antitumor activity against human SK-MEL-28 cells assessed as cell growth inhibition at 10 uM incubated for 48 hrs by sulforhodamine B assay; type: functional; settings: read-out: GI
OVCAR-3 = assay: Antitumor activity against human OVCAR-3 cells assessed as cell growth inhibition at 10 uM incubated for 48 hrs by sulforhodamine B assay; type: functional; settings: read-out: GI
LOX IMVI = assay: Antitumor activity against human LOX IMVI cells assessed as cell growth inhibition at 10 uM incubated for 48 hrs by sulforhodamine B assay; type: functional; settings: read-out: GI
HCC 2998 = assay: Antitumor activity against human HCC2998 cells assessed as cell growth inhibition at 10 uM incubated for 48 hrs by sulforhodamine B assay; type: functional; settings: read-out: GI
OVCAR-4 = assay: Antitumor activity against human OVCAR-4 cells assessed as cell growth inhibition at 10 uM incubated for 48 hrs by sulforhodamine B assay; type: functional; settings: read-out: GI
CCRF-CEM = assay: Antitumor activity against human CCRF-CEM cells assessed as cell growth inhibition at 10 uM incubated for 48 hrs by sulforhodamine B assay; type: functional; settings: read-out: GI
Hs-578T = assay: Antitumor activity against human HS 578T cells assessed as cell growth inhibition at 10 uM incubated for 48 hrs by sulforhodamine B assay; type: functional; settings: read-out: GI
IGROV-1 = assay: Antitumor activity against human IGROV1 cells assessed as cell growth inhibition at 10 uM incubated for 48 hrs by sulforhodamine B assay; type: functional; settings: read-out: GI
MDA-MB-231 = assay: Antitumor activity against human MDA-MB-231/ATCC cells assessed as cell growth inhibition at 10 uM incubated for 48 hrs by sulforhodamine B assay; type: functional; settings: read-out: GI
NCI-H23 = assay: Antitumor activity against human NCI-H23 cells assessed as cell growth inhibition at 10 uM incubated for 48 hrs by sulforhodamine B assay; type: functional; settings: read-out: GI
ACHN = assay: Antitumor activity against human ACHN cells assessed as cell growth inhibition at 10 uM incubated for 48 hrs by sulforhodamine B assay; type: functional; settings: read-out: GI
NCI/ADR-RES = assay: Antitumor activity against human NCI/ADR-RES cells assessed as cell growth inhibition at 10 uM incubated for 48 hrs by sulforhodamine B assay; type: functional; settings: read-out: GI
SR = assay: Antitumor activity against human SR cells assessed as cell growth inhibition at 10 uM incubated for 48 hrs by sulforhodamine B assay; type: functional; settings: read-out: GI
HCT-15 = assay: Antitumor activity against human HCT15 cells assessed as cell growth inhibition at 10 uM incubated for 48 hrs by sulforhodamine B assay; type: functional; settings: read-out: GI
NCI-H226 = assay: Antitumor activity against human NCI-H226 assessed as cell growth inhibition at 10 uM incubated for 48 hrs by sulforhodamine B assay; type: functional; settings: read-out: GI
UO-31 = assay: Antitumor activity against human UO-31 cells assessed as cell growth inhibition at 10 uM incubated for 48 hrs by sulforhodamine B assay; type: functional; settings: read-out: GI
HL-60(TB) = assay: Antitumor activity against human HL-60(TB) cells assessed as cell growth inhibition at 10 uM incubated for 48 hrs by sulforhodamine B assay; type: functional; settings: read-out: GI
BT-549 = assay: Antitumor activity against human BT-549 cells assessed as cell growth inhibition at 10 uM incubated for 48 hrs by sulforhodamine B assay; type: functional; settings: read-out: GI
MCF7 = assay: Antitumor activity against human MCF7 cells assessed as cell growth inhibition at 10 uM incubated for 48 hrs by sulforhodamine B assay; type: functional; settings: read-out: GI
SN12C = assay: Antitumor activity against human SN12C cells assessed as cell growth inhibition at 10 uM incubated for 48 hrs by sulforhodamine B assay; type: functional; settings: read-out: GI
KM12 = assay: Antitumor activity against human KM12 cells assessed as cell growth inhibition at 10 uM incubated for 48 hrs by sulforhodamine B assay; type: functional; settings: read-out: GI
Malme-3M = assay: Antitumor activity against human MALME-3M cells assessed as cell growth inhibition at 10 uM incubated for 48 hrs by sulforhodamine B assay; type: functional; settings: read-out: GI
SF-295 = assay: Antitumor activity against human SF295 cells assessed as cell growth inhibition at 10 uM incubated for 48 hrs by sulforhodamine B assay; type: functional; settings: read-out: GI
PC-3 = assay: Antitumor activity against human PC-3 cells assessed as cell growth inhibition at 10 uM incubated for 48 hrs by sulforhodamine B assay; type: functional; settings: read-out: GI
SK-OV-3 = assay: Antitumor activity against human SK-OV-3 cells assessed as cell growth inhibition at 10 uM incubated for 48 hrs by sulforhodamine B assay; type: functional; settings: read-out: GI
OVCAR-8 = assay: Antitumor activity against human OVCAR-8 cells assessed as cell growth inhibition at 10 uM incubated for 48 hrs by sulforhodamine B assay; type: functional; settings: read-out: GI
RPMI-8226 = assay: Antitumor activity against human RPMI8226 cells assessed as cell growth inhibition at 10 uM incubated for 48 hrs by sulforhodamine B assay; type: functional; settings: read-out: GI
SNB-75 = assay: Antitumor activity against human SNB-75 cells assessed as cell growth inhibition at 10 uM incubated for 48 hrs by sulforhodamine B assay; type: functional; settings: read-out: GI
RXF 393 = assay: Antitumor activity against human RXF 393 cells assessed as cell growth inhibition at 10 uM incubated for 48 hrs by sulforhodamine B assay; type: functional; settings: read-out: GI
786-0 = assay: Antitumor activity against human 786-0 cells assessed as cell growth inhibition at 10 uM incubated for 48 hrs by sulforhodamine B assay; type: functional; settings: read-out: GI
COLO 205 = assay: Antitumor activity against human COLO205 cells assessed as cell growth inhibition at 10 uM incubated for 48 hrs by sulforhodamine B assay; type: functional; settings: read-out: GI
SF-268 = assay: Antitumor activity against human SF268 cells assessed as cell growth inhibition at 10 uM incubated for 48 hrs by sulforhodamine B assay; type: functional; settings: read-out: GI
MDA-MB-435 = assay: Antitumor activity against human MDA-MB-435 cells assessed as cell growth inhibition at 10 uM incubated for 48 hrs by sulforhodamine B assay; type: functional; settings: read-out: GI
HT-29 = assay: Antitumor activity against human HT-29 cells assessed as cell growth inhibition at 10 uM incubated for 48 hrs by sulforhodamine B assay; type: functional; settings: read-out: GI
NCI-H460 = assay: Antitumor activity against human NCI-H460 assessed as cell growth inhibition at 10 uM incubated for 48 hrs by sulforhodamine B assay; type: functional; settings: read-out: GI

## O=C1c2ccccc2C(=O)c2c1ccc1[nH]c(-c3ccc(-c4nc5c6ccccc6c6ccccc6c5[nH]4)cc3)nc21
UACC-62
  inhibition of growth at 10 µM: < 10%
HOP-92
  inhibition of growth at 10 µM: < 10%
MOLT-4
  inhibition of growth at 10 µM: 12.4%
SNB-19
  inhibition of growth at 10 µM: < 10%
M14
  inhibition of growth at 10 µM: < 10%
NCI-H522
  inhibition of growth at 10 µM: < 10%
SW-620
  inhibition of growth at 10 µM: < 10%
HCT-116
  inhibition of growth at 10 µM: < 10%
K562
  inhibition of growth at 10 µM: < 10%
MDA-MB-468
  inhibition of growth at 10 µM: < 10%
A498
  inhibition of growth at 10 µM: < 10%
EKVX
  inhibition of growth at 10 µM: 10.3%
U-251
  inhibition of growth at 10 µM: < 10%
SK-MEL-28
  inhibition of growth at 10 µM: < 10%
OVCAR-3
  inhibition of growth at 10 µM: < 10%
LOX IMVI
  inhibition of growth at 10 µM: < 10%
HCC 2998
  inhibition of growth at 10 µM: < 10%
OVCAR-4
  inhibition of growth at 10 µM: 89%
CCRF-CEM
  inhibition of growth at 10 µM: < 10%
Hs-578T
  inhibition of growth at 10 µM: < 10%
IGROV-1
  inhibition of growth at 10 µM: < 10%
MDA-MB-231
  inhibition of growth at 10 µM: 14.4%
NCI-H23
  inhibition of growth at 10 µM: < 10%
ACHN
  inhibition of growth at 10 µM: < 10%
NCI/ADR-RES
  inhibition of growth at 10 µM: < 10%
SR
  inhibition of growth at 10 µM: 11.4%
HCT-15
  inhibition of growth at 10 µM: < 10%
NCI-H226
  inhibition of growth at 10 µM: < 10%
UO-31
  inhibition of growth at 10 µM: 22.6%
HL-60(TB)
  inhibition of growth at 10 µM: < 10%
BT-549
  inhibition of growth at 10 µM: < 10%
MCF7
  inhibition of growth at 10 µM: < 10%
SN12C
  inhibition of growth at 10 µM: < 10%
KM12
  inhibition of growth at 10 µM: < 10%
Malme-3M
  inhibition of growth at 10 µM: < 10%
SF-295
  inhibition of growth at 10 µM: < 10%
PC-3
  inhibition of growth at 10 µM: < 10%
SK-OV-3
  inhibition of growth at 10 µM: < 10%
OVCAR-8
  inhibition of growth at 10 µM: < 10%
RPMI-8226
  inhibition of growth at 10 µM: 10.4%
SNB-75
  inhibition of growth at 10 µM: 10%
RXF 393
  inhibition of growth at 10 µM: < 10%
786-0
  inhibition of growth at 10 µM: < 10%
COLO 205
  inhibition of growth at 10 µM: < 10%
SF-268
  inhibition of growth at 10 µM: < 10%
MDA-MB-435
  inhibition of growth at 10 µM: < 10%
HT-29
  inhibition of growth at 10 µM: < 10%
NCI-H460
  inhibition of growth at 10 µM: < 10%
